Test systems include DU-145 prostate; EKVX NSCLC; HT29 colon; MALME-3M melanoma; MCF7 breast; NCI-H460 lung; PC-3 prostate; RPMI-8226 leukemia; SW-620 colon; U251 CNS.
Holding throughout (assay): growth of human tumour cells (NCI), 48 h

The structures appear in SMILES notation.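 Results reflect a 48-hour exposure of cells in 96-well plates to compound at five concentrations. TGI is the concentration that stops growth completely.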 Peptide text beside a SMILES is read from it. * marks the point of attachment. X26 = Clc1c(Cl)c(Cl)c(O*)c(Cl)c1Cl; Boc = CC(C)(C)OC(=O)*; OBn = c1ccc(CO*)cc1; Bn = c1ccc(C*)cc1 A value given as a limit tells only on which side of the number the result lay.

On to `CC(C)CC(NC(=O)C(CCC(=O)OCc1ccccc1)NC(=O)OC(C)(C)C)C(=O)NC(COCc1ccccc1)C(=O)NC(Cc1ccccc1)C(=O)Oc1c(Cl)c(Cl)c(Cl)c(Cl)c1Cl` (stereo not given) (Boc-E(OBn)LS(Bn)F-X26; configuration not given here), for which the TGI with DU-145 prostate was > 100 µM; in the test with EKVX NSCLC, 96.2 µM; with HT29 colon, > 100 µM; in the test with MALME-3M melanoma, 91.5 µM; in the test on MCF7 breast it was 66.3 µM; in the test on NCI-H460 lung, 59.8 µM. Further, the TGI with PC-3 prostate was > 100 µM; in the test with RPMI-8226 leukemia it was 76.6 µM; in the test with SW-620 colon, > 100 µM; in the test on U251 CNS it was 43.7 µM.
In the case of `C=C1CC(COc2ccc3c(C)c(C)c(=O)oc3c2C)(c2ccccc2)OC1=O` (stereo not given), the TGI in the test on DU-145 prostate was 6 µM; in the test with EKVX NSCLC it was 20.8 µM; with HT29 colon, 3.27 µM; in the test with MALME-3M melanoma, 4.16 µM; with MCF7 breast it was 3.56 µM; in the test on NCI-H460 lung, 18 µM. Also, the TGI in the test on PC-3 prostate was determined as 3.84 µM; in the test with RPMI-8226 leukemia, 0.764 µM; in the test on SW-620 colon, 3.5 µM; with U251 CNS, 20.3 µM.
On to `O=C(Sc1c(-c2ccccc2)c(=O)n(-c2ccccc2)c(=S)n1-c1ccccc1)c1ccco1`, for which the TGI in the test on DU-145 prostate, in the test with EKVX NSCLC, with HT29 colon, in the test with MALME-3M melanoma, in the test with MCF7 breast and in the test with NCI-H460 lung was > 100 µM in each case. Moreover, the TGI with PC-3 prostate is > 100 µM; in the test on RPMI-8226 leukemia, > 83.7 µM; in the test with SW-620 colon, > 100 µM; in the test on U251 CNS, > 100 µM.
Regarding `O=c1ccn(-c2ccccn2)c(=O)n1-c1ccccn1`, the TGI with DU-145 prostate, with EKVX NSCLC, with HT29 colon, with MALME-3M melanoma, with MCF7 breast and in the test on NCI-H460 lung was > 100 µM throughout. The TGI in the test on PC-3 prostate, with RPMI-8226 leukemia, with SW-620 colon and in the test on U251 CNS was > 100 µM throughout.
`CN(C)CCCNc1cc(O)c2c(c1O)C(=O)c1ccccc1C2=O`: the TGI in the test with DU-145 prostate is 28 µM; with EKVX NSCLC it was 31.1 µM; in the test with HT29 colon, 24 µM; in the test with MALME-3M melanoma, 50.2 µM; in the test on MCF7 breast it was 35.9 µM; in the test on NCI-H460 lung, 19.4 µM. For the same compound, the TGI was found to be 27.5 µM in the test on PC-3 prostate, 29.8 µM in the test with RPMI-8226 leukemia, 21.7 µM in the test on SW-620 colon and 27.2 µM in the test with U251 CNS.
Take `O=C1c2cccnc2S(=O)(=O)N1c1ccc([N+](=O)[O-])cc1`: the TGI in the test on DU-145 prostate, in the test on EKVX NSCLC, with HT29 colon, with MALME-3M melanoma, in the test on MCF7 breast and with NCI-H460 lung was > 100 µM in each case. Further, the TGI in the test on PC-3 prostate, in the test on RPMI-8226 leukemia, with SW-620 colon and in the test on U251 CNS was > 100 µM in each case.
In the case of `COC(=O)C1=C(C)NC(C)=C(C(=O)OC)C1c1cccc(N=O)c1`, the TGI with DU-145 prostate came out at 29.7 µM; with EKVX NSCLC, 36 µM; in the test on HT29 colon, 34 µM; with MALME-3M melanoma, 28.8 µM; with MCF7 breast, 40.1 µM; with NCI-H460 lung it was 31 µM. For the same compound, the TGI with PC-3 prostate is 31.7 µM; in the test with RPMI-8226 leukemia, > 100 µM; in the test on SW-620 colon, 17.7 µM; in the test with U251 CNS, 30.7 µM.
With `S=c1[nH]nc(Cn2c3ccc(Br)cc3c3nc4ccccc4nc32)n1C1CCCCC1`, the TGI was > 100 µM in the test on DU-145 prostate; > 100 µM with EKVX NSCLC; > 100 µM in the test with HT29 colon; 72.7 µM in the test with MALME-3M melanoma; > 100 µM in the test on MCF7 breast; > 100 µM with NCI-H460 lung. For the same compound, the TGI in the test on PC-3 prostate was > 66.9 µM; in the test on RPMI-8226 leukemia, 59.4 µM; in the test with SW-620 colon, > 100 µM; with U251 CNS it was > 67.6 µM.
Turning to `Cc1cc(OCc2nnc3sc(NC(=O)c4ccccc4)nn23)ccc1Cl`, the TGI with DU-145 prostate was 58.4 µM; in the test with EKVX NSCLC, 89.7 µM; in the test with HT29 colon, > 100 µM; in the test on MALME-3M melanoma, 42.2 µM; with MCF7 breast, > 100 µM; in the test on NCI-H460 lung, > 100 µM. In addition, the TGI in the test on PC-3 prostate was > 100 µM; in the test with RPMI-8226 leukemia, 69.2 µM; with SW-620 colon it was > 100 µM; in the test on U251 CNS, > 100 µM.
For the compound `COc1cc2c3cc1Oc1c(OC)c(OC)cc4c1C(Cc1ccc(O)c(c1)Oc1ccc(cc1)CC3N(C)CC2)CN(C)C4` (stereo not given), the TGI came out at 60.8 µM with DU-145 prostate; 43.4 µM in the test with EKVX NSCLC; 13.7 µM in the test with HT29 colon; 30.9 µM in the test with MALME-3M melanoma; 34.2 µM in the test on MCF7 breast; 33.7 µM in the test on NCI-H460 lung. Further, the TGI in the test with PC-3 prostate was > 100 µM; in the test with RPMI-8226 leukemia, 47.6 µM; in the test on SW-620 colon, 30 µM; with U251 CNS, 24.7 µM.
With `NC(N)=NS(=O)(=O)c1ccc(NC(=O)c2cccc3c(NNc4ccc(S(N)(=O)=O)cc4)c4ccccc4nc23)cc1`, the TGI in the test with DU-145 prostate was > 100 µM; with EKVX NSCLC it was > 100 µM; with HT29 colon, > 100 µM; with MALME-3M melanoma it was 88.8 µM; with MCF7 breast, 86.3 µM; with NCI-H460 lung it was > 100 µM. In addition, the TGI in the test with PC-3 prostate, in the test with RPMI-8226 leukemia, with SW-620 colon and in the test with U251 CNS was > 100 µM in each case.
Consider `CC(C)(C)c1cc(/C=C2/NC(=O)NC2=O)cc(C(C)(C)C)c1O`, for which the TGI with DU-145 prostate is 30.3 µM; with EKVX NSCLC it was 24 µM; in the test with HT29 colon it was 31.7 µM; in the test with MALME-3M melanoma it was 34.6 µM; in the test on MCF7 breast, 29.9 µM; in the test on NCI-H460 lung it was 29.1 µM. For the same compound, the TGI with PC-3 prostate stood at 20.3 µM; with RPMI-8226 leukemia, 31.9 µM; in the test with SW-620 colon, 39.3 µM; in the test with U251 CNS, 25.8 µM.
Turning to `Nc1c(S(N)(=O)=O)cc(S(N)(=O)=O)cc1S(N)(=O)=O`, the TGI with DU-145 prostate, in the test with EKVX NSCLC, in the test with HT29 colon, in the test with MALME-3M melanoma, in the test on MCF7 breast and in the test with NCI-H460 lung was > 100 µM each time. The TGI with PC-3 prostate, with RPMI-8226 leukemia, with SW-620 colon and with U251 CNS was > 100 µM each time.
For `O=P1(C(O)/C=C/c2ccccc2)N(Cc2ccccc2)[C@@H]2CCCC[C@H]2N1Cc1ccccc1` (stereo not given in full), the TGI in the test on DU-145 prostate is 45.3 µM; in the test with EKVX NSCLC, 35.9 µM; with HT29 colon it was 21.5 µM; in the test on MALME-3M melanoma, 8.45 µM; in the test on MCF7 breast, 15.1 µM; in the test on NCI-H460 lung, 14.7 µM. The TGI amounted to 11.3 µM with PC-3 prostate, 4.59 µM with RPMI-8226 leukemia, 33.3 µM in the test on SW-620 colon and 16.5 µM in the test with U251 CNS.

The values above are taken from PubChem BioAssay (NCI).
